Results on two compounds are retold here after patent US10124012B2, “Method for treatment of hyperglycemia and hyperlipidemia” (priority 2016, dated 2018).

Experiment [1] relates to high-fat diet-fed C57BL/6J mouse. Briefly: Body weight, tissue weights and food intake in HFD-fed mice. The class given is in vivo, C57BL/6J mice. Conditions: HF + Feno: fenofibrate 250 mg/kg/day oral gavage 4 weeks. From the text: (§1) The 4-week old male C57BL/6J mice (total amount n=63) were obtained from the National Laboratory Animal Center (Taipei, Taiwan). After acclimatization for one week, all of the mice were randomly assigned into a control (CON) group and a high-fat diet (HFD) group. […] After HFD feeding for 8 weeks, the HFD group was randomly subdivided into six groups (n=9 per group) receiving different treatments and fed on HFD. […] The HF+AnK1, HF+AnK2, and HF+AnK3 groups are collectively termed AnK-treated HFD groups in the following examples. The CON mice were administered vehicle. All treatments were administered via oral gavage once daily. After administration for 4 weeks, all mice were fasted 12 hours, and blood was collected from the retro-orbital sinus under ether anesthesia. At the end of the experiment, the mice were sacrificed via carbon dioxide inhalation. Liver, adipose tissue, and skeletal muscle were collected and immediately stored at −80° C. for target gene analysis.
The metabolic parameters, including body weight, weight gain, and food intake, were performed as the following. Body weight was daily measured at the same time throughout the study. Body weight gain is considered as the weight difference between two consecutive days. The amount of pellet food was weighted, followed by weighting the amount of remaining food after 24 hours. The difference between the two weights is defined as daily food intake.

For experiment [2] the test system is unchanged. Briefly: Hepatic lipids in HFD-fed mice. It is filed as in vivo, C57BL/6J mice. The note with it: HF + Feno: fenofibrate 250 mg/kg/day oral gavage 4 weeks. The method, then: as §1, with “Animal studies” for “The 4-week old male C57BL/6J mice (total amount n=63)”, “performed and approved under” for “obtained from”, “guidelines of the Institutional” for “National Laboratory”, “Care and Use Committee in Taiwan (12 Mar. 2015). […]” for “Center (Taipei, Taiwan).”, “group. For the following 12 weeks, the CON group (n=9) received a control diet or a low-fat diet (Diet 12450B, Research Diets, Inc., New Brunswick, N.J., USA), while the HFD group (n=54) received a high-fat diet (Diet 12451, Research Diets, New Brunswick, N.J., USA).” for “group.”

Experiment [3] shares this test system. The experiment in a line: Histopathology of epididymal white adipose tissue (adipocyte hypertrophy). It is filed as in vivo, C57BL/6J mice. The note with it: mean area of epididymal adipocyte; HF + Feno: fenofibrate 250 mg/kg/day oral gavage 4 weeks, HFD-fed mice. As for the experimental part: (§2) Animal studies were performed and approved under the guidelines of the Institutional Animal Care and Use Committee in Taiwan (12 Mar. 2015). The 4-week old male C57BL/6J mice (total amount n=63) were obtained from the National Laboratory Animal Center (Taipei, Taiwan). After acclimatization for one week, all of the mice were randomly assigned into a control (CON) group and a high-fat diet (HFD) group. For the following 12 weeks, the CON group (n=9) received a control diet or a low-fat diet (Diet 12450B, Research Diets, Inc., New Brunswick, N.J., USA), while the HFD group (n=54) received a high-fat diet (Diet 12451, Research Diets, New Brunswick, N.J., USA). The low-fat diet was composed of protein 20%, carbohydrate 70% and fat 10%, whereas the high-fat diet was composed of protein 20%, carbohydrate 35%, and fat 45% (of total energy, % kcal). After HFD feeding for 8 weeks, the HFD group was randomly subdivided into six groups (n=9 per group) receiving different treatments and fed on HFD. […] The HF+AnK1, HF+AnK2, and HF+AnK3 groups are collectively termed AnK-treated HFD groups in the following examples. The CON mice were administered vehicle. All treatments were administered via oral gavage once daily. After administration for 4 weeks, all mice were fasted 12 hours, and blood was collected from the retro-orbital sinus under ether anesthesia. At the end of the experiment, the mice were sacrificed via carbon dioxide inhalation. Liver, adipose tissue, and skeletal muscle were collected and immediately stored at −80° C. for target gene analysis.
(§3) Parts of visceral adipose and liver specimens were fixed with formalin (200 g/kg) neutral buffered solution and embedded in paraffin. A series of 8 μm-thick sections was cut and stained with hematoxylin and eosin. For microscopic examination, a microscope (Olympus BX51, Olympus, Tokyo, Japan) was used and the images were photographed.
Adipocyte hypertrophy, the pathological enlargement of adipocytes, is often found in subjects with type 2 diabetes and hyperlipidemia. To verify the therapeutic effect of AnK on adipocyte hypertrophy, morphology of the epididymal white adipose tissue from mice of the HF group and the AnK-treated HFD groups was examined. Micrographs (magnification 200X) of the EWAT sections for each group were shown in FIG. 4 and analyzed to determine the mean area of an epididymal adipocyte.

Experiment [4] shares this test system. The experiment in a line: Histopathology of liver (hepatocellular ballooning). It is filed as in vivo, C57BL/6J mice. Conditions: grade 0 absence, 1 few cells, 2 many cells (Table 4); HF + Feno: fenofibrate 250 mg/kg/day oral gavage 4 weeks, HFD-fed mice. The method, then:
as §2, §3
On the basis of previous study, the degree of hepatocellular ballooning is defined in TABLE 4: […]

Experiment [5] has as its system membrane GLUT4. The experiment in a line: Western blotting of skeletal muscular membrane GLUT4 in HFD-fed mice. It is filed as in vivo, C57BL/6J mice. Conditions: skeletal muscle, AnK 10, 20, 40, Feno 250, Metf 300 mg/kg/day, as compared with the HF group.
From the text: as §1
About 0.1 g of liver tissue, skeletal muscle, or adipose tissue was used for the homogenate samples. Samples were powdered under liquid nitrogen and homogenized for 20 seconds in 500 μL buffer containing 20 mM Tris-HCl (pH 7.4 at 4° C.), 2% SDS, 5 mM EDTA, 5 mM EGTA, 1 mM dithiothreitol (DTT), 100 mM NaF, 2 mM sodium vanadate, 0.5 mM phenylmethylsulfonyl fluoride, 10 μg/mL leupeptin, and 10 μL/mL pepstatin. The total membrane fraction was used for measurement. The protein concentration in supernatant was determined with a BCA protein assay kit (Thermo Scientific, Rockford, Ill., USA). […] The membrane was blocked with 5% slim milk in Tris-buffered saline (TBS)(Amersham BioSciences, Uppsala, Sweden) containing 0.05% Tween-20 (Bio Rad, CA, USA) and incubated overnight at 4° C. with antibodies at 1:200 dilution. […] Immunoreactive bands were detected with ECL reagent kit (GE Healthcare BioSciences, Buckinghamshire, UK). The intensity of Western blot signals was analyzed using AlphaEase FC software (Alpha Innotech Corporation, Randburg, South Africa). […]
(In general: In western blotting, separated proteins are transferred to a membrane and probed.)

Experiment [6] deals with membrane GLUT4. The experiment in a line: Membrane GLUT4 expression in C2C12 cells (Western blotting). It is filed as cell-based. Conditions: AnK 1, 5, 10 and 25 μg/mL 30 min, insulin 100 nM 25 min, vs CON group. The method, then: (§4) For the in vitro assay, C2C12 skeletal myoblasts (ATCC CRL-1772) were cultured at 37° C. in Dulbecco's modified Eagle's medium (DMEM; Gibco BRL) supplemented with 10% fetal bovine serum (FBS; Hyclone) and 100 U/ml penicillin and 100 μg/ml streptomycin (Gibco BRL), and split 1:4 using 0.05% trypsin at 80% confluency. Myoblasts were diluted and placed in a 9 cm dish. Cells were cultured to achieve 80-90% confluency and refreshed with […] (2% FBS/DMEM) every 24 hours for 5-7 days. The term “confluency” refers to the proportion of the surface of a culture dish that is covered by adherent cells growing in the dish. 100% confluency refers to complete coverage of the surface by the cells.
(§5) Differentiated C2C12 cells were serum-starved in DMEM/BSA at 37° C. for 2 hours prior to incubation with AnK (at 1, 5, 10, and 25 μg/mL) or vehicle (0.2% dimethyl sulfoxide (DMSO) in saline) for 30 min or with 100 nM insulin for 25 min.
The C2C12 cells of the other group were homogenized in a homogenization buffer having a pH value of about 7.4 and containing 250 mM sucrose, 50 mM Tris, and 0.2 mM edetic acid (EDTA). […]
(§6) Protein concentrations were determined via BCA assay (Pierce). […]
(§7) SDS polyacrylamide gel electrophoresis (SDS-PAGE) and Western blotting. Proteins were detected with antibodies specific for GLUT4, Akt, phospho-Akt (Ser^473), AMPK, and phospho-AMPK (Thr^172).

Experiment [7] concerns phospho-Akt (Ser^473)/total-Akt. Briefly: Akt phosphorylation in C2C12 cells (Western blotting). It is filed as cell-based. The note with it: AnK 1, 5, 10 and 25 μg/mL 30 min, insulin 100 nM 25 min, vs CON group. The method, then: as §4, §5
(§8) The abovementioned C2C12 cells were then washed three times with phosphate buffered saline (PBS) and divided into two groups. […]
as §6, §7

Experiment [8] concerns phospho-AMPK (Thr^172)/total-AMPK. The experiment in a line: AMPK phosphorylation in C2C12 cells (Western blotting). It is filed as cell-based. Conditions: AnK 1, 5, 10 and 25 μg/mL 30 min, insulin 100 nM 25 min, vs CON group. The method, then: as §4, §5, §8, §6, §7

Take `CC(C)OC(=O)C(C)(C)Oc1ccc(C(=O)c2ccc(Cl)cc2)cc1` [Feno, fenofibrate, reference compound]: in experiment [1], the “Absolute tissue weight BAT” value is 0.157 ± 0.013 g, the “Absolute tissue weight EWAT” value amounted to 0.603 ± 0.041 g, the “Absolute tissue weight Liver” value is recorded as 1.700 ± 0.070 g and the “Absolute tissue weight MWAT” value stood at 0.247 ± 0.025 g. In experiment [1], the “Absolute tissue weight RWAT” value is on record as 0.181 ± 0.020 g, the “Absolute tissue weight Skeletal muscle” value amounted to 0.428 ± 0.026 g, the “Absolute tissue weight Spleen” value is recorded as 0.084 ± 0.005 g and the Final body weight was 27.55 ± 0.84 g. In addition, the Weight gain in experiment [1] came out at 0.57 ± 0.55 g. In addition, the “Absolute tissue weight Visceral fat” value in experiment [1] (sum of EWAT and RWAT) came out at 0.784 ± 0.052 g. Moreover, in experiment [2], the “Liver lipids total lipid” value amounted to 64.9 ± 5.1 mg/g and the Liver lipids triacylglycerol was determined as 47.3 ± 4.6 µmol/g. Besides, the Adipocyte size in experiment [3] came to 6304.2 ± 316.9 μm^2. Besides, in experiment [4], the “Hepatocellular ballooning Mean score” value is 0.5 ± 0.1. Moreover, the “increase of membrane GLUT4 levels” value in experiment [5] turned out to be 1.98 fold.
Consider insulin [reference compound], for which the “protein expression of membrane GLUT4” value in experiment [6] is given as “enhanced”. In addition, the “expression ratio of phospho-Akt (p-Akt) to total-Akt (t-Akt)” value in experiment [7] is recorded as “higher”. For the same compound, the “expression ratio of phospho-AMPK (p-AMPK) to total-AMPK (t-AMPK)” value in experiment [8] was “higher”.
